Source: ChEMBL document CHEMBL2021830, “Chlorinated englerins with selective inhibition of renal cancer cell growth” (2012)

Columns and labels:
Assay type in all cases: functional
[1] = tested on: CAKI-1; experiment: Growth inhibition of human CAKI-1 cells after 48 hrs by SRB assay
[2] = tested on: SN12C; experiment: Growth inhibition of human SN12C cells after 48 hrs by SRB assay
[3] = tested on: A498; experiment: Growth inhibition of human A498 cells after 48 hrs
[4] = tested on: UO-31; experiment: Growth inhibition of human UO31 cells after 48 hrs
[5] = tested on: 786-0; experiment: Growth inhibition of human 786-0 cells after 48 hrs by SRB assay
[6] = tested on: ACHN; experiment: Growth inhibition of human ACHN cells after 48 hrs by SRB assay
[7] = tested on: RXF 393; experiment: Growth inhibition of human RXF393 cells after 48 hrs by SRB assay
[8] = tested on: TK-10; experiment: Growth inhibition of human TK10 cells after 48 hrs by SRB assay

SMILES	GI50 ([1]; Homo sapiens, CAKI-1, 48 h)	GI50 ([2]; Homo sapiens, SN12C, 48 h)	GI50 ([3]; Homo sapiens, A498, 48 h)	GI50 ([4]; Homo sapiens, UO-31, 48 h)	GI50 ([5]; Homo sapiens, 786-0, 48 h)	GI50 ([6]; Homo sapiens, ACHN, 48 h)	GI50 ([7]; Homo sapiens, RXF 393, 48 h)	GI50 ([8]; Homo sapiens, TK-10, 48 h)	GI50 [1]	GI50 [2]	GI50 [3]	GI50 [4]	GI50 [5]	GI50 [6]	GI50 [7]	GI50 [8]
CC(C)[C@@]12C[C@@H](OC(=O)CO)[C@@](C)(O1)[C@@H]1CC[C@@H](C)[C@H]1[C@@H]2OC(=O)/C(Cl)=C/c1ccccc1	390 nM	560 nM	28 nM	35 nM	10000 nM	41 nM	59 nM	21000 nM	–	–	–	–	–	–	–	–
CC(C)[C@@]12C[C@@H](OC(=O)CO)[C@@](C)(O1)[C@@H]1CC[C@@H](C)[C@H]1[C@@H]2OC(=O)C(Cl)C(O)c1ccccc1 (single isomer, unassigned)	–	–	–	–	–	–	–	–	5000 nM	4700 nM	660 nM	1900 nM	11000 nM	1400 nM	390 nM	27000 nM
CC(C)[C@@]12C[C@@H](OC(=O)CO)[C@@](C)(O1)[C@@H]1CC[C@@H](C)[C@H]1[C@@H]2OC(=O)C(Cl)C(Cl)c1ccccc1 (single isomer, unassigned; epimer 1)	–	930 nM	–	–	12000 nM	–	–	18000 nM	420 nM	–	140 nM	390 nM	–	140 nM	–	–
CC(C)[C@@]12C[C@@H](OC(=O)CO)[C@@](C)(O1)[C@@H]1CC[C@@H](C)[C@H]1[C@@H]2OC(=O)C(Cl)C(O)c1ccccc1 (single isomer, unassigned; epimer 1)	–	–	–	–	–	–	510 nM	17000 nM	460 nM	630 nM	180 nM	250 nM	1700 nM	320 nM	–	–
CC(C)[C@@]12C[C@@H](OC(=O)CO)[C@@](C)(O1)[C@@H]1CC[C@@H](C)[C@H]1[C@@H]2OC(=O)C(Cl)C(Cl)c1ccccc1 (single isomer, unassigned; epimer 2)	–	–	–	–	–	–	–	–	160 nM	1000 nM	67 nM	160 nM	–	49 nM	–	25000 nM
